Laboratory results reported in article PMC5036617 (Toxicological Sciences, 2016).
Read-outs that look alike come from different tables or passages of the source. One block for each compound: values may come before it.

Key:
[1] = cited from earlier work
[2] = system: HepG2 cells; assay: Cellular ATP content of HepG2 cells in glucose or galactose medium (ATP bioluminescent assay); format: cell-based; conditions: 2 h; for EC50ATPglu/EC50ATPgal: ratio ≥ 2 identifies a mitochondrial liability; for EC50: Homo sapiens, concentration reducing cellular ATP content by 50%
Description: Metabolic switching of cells was performed based on work previously described by ([[…] et al., 2015]). Briefly, 24 h prior to metabolic switch, HepG2 cells were collected by trypsinization and seeded on a collagen-coated flat-bottomed 96-well plate (20 000 cells/50 μl/well) and incubated (37°C, 5% CO2) overnight. […] Flutamide, 2-hydroxyflutamide and bicalutamide stock solutions were prepared in DMSO and diluted further in the appropriate medium. Compounds (50 μl) were then added to each well and cells were incubated for 2 h (37 °C, 5% CO2). All assays used ≤ 0.5% DMSO as a vehicle control. […] LDH content of the cells and supernatant was assessed using a cytotoxicity detection kit according to the manufacturer's instructions. ATP content was assessed using an ATP bioluminescent assay according to the manufacturer's instructions. Briefly, 10 μl of cell lysate or ATP standard curve solutions were added to a white-walled 96-well plate before addition of 40 μl ATP assay mix. Protein content of all wells was then assessed using a BCA assay applied to 10 μl of cell lysate and standards. LDH (490 nm), BCA (570 nm), and ATP assay luminescence were then measured using a plate reader (Varioskan, Thermo Scientific). ATP content readings were normalized to protein content. Experiments were conducted in a minimum of triplicate to ensure the reliability of single values. EC50 data were determined by nonlinear regression analysis using GraphPad Prism 5.0. Normality was assessed using a Shapiro-Wilk statistical test. Statistical significance was determined by an unpaired t-test for parametric data and a Mann-Whitney U test for non-parametric data using StatsDirect 2.7.9. P < .05 was taken as showing a significant difference.

[3] = system: HepG2 cells; assay: Mitochondrial stress test, OCR analysis (Seahorse XFe96); format: cell-based; conditions: vs vehicle control
Description: HepG2 cells were collected by trypsinization and seeded on a collagen-coated XF 96-well cell culture microplate (25 000 cells/100 µl medium/well) and incubated overnight in glucose medium (37 °C, 5% CO2). All assays used ≤ 0.5% DMSO as a vehicle control. Cells were incubated for 1 h (37°C, 0% CO2) before culture medium was replaced by 175 µl of unbuffered Seahorse XF Base medium supplemented with glucose (25 mM), L-glutamine (2 mM), sodium pyruvate (1 mM), pre-warmed to 37 °C (pH 7.4). Prior to measurement of OCR, the Seahorse XFe96 instrument gently mixed the assay medium in each well for 10 min to enable the oxygen partial pressure to reach equilibrium. […] There were 9 OCR measurement cycles following compound injection and each measurement cycle consisted of a 3 min mix and 3 min measure. […] After stress test compound injections there were 3 measurement cycles before the injection of the next stress test compound. This enabled the calculation of basal respiration (OCR prior to oligomycin injection—non-mitochondrial OCR), proton leak (OCR after oligomycin injection—non-mitochondrial OCR), ATP-linked OCR (basal respiration—proton leak—non-mitochondrial OCR), maximal respiration (first injection after FCCP injection—non-mitochondrial OCR) and spare respiratory capacity (maximal respiration—basal respiration) (Figure 2).  FIG. 2 Representative control mitochondrial stress test trace. Mitochondrial stress test assays consisted of a series of compound injections into the cell culture microplate. […] Remaining injections consisted of oligomycin (ATP synthase inhibitor), FCCP (OXPHOS uncoupler), and rotenone/antimycin A (complex I and III inhibitors, respectively) with each followed by 3 measurement cycles. This series of manipulations enabled the calculation of parameters: basal, ATP-linked, maximum, and non-mitochondrial OCR, as well as proton leak. Each measurement cycle was a total of 6 min. Following completion of OCR assays, medium was removed from all wells and 20 µl of somatic cell ATP releasing agent was added to each well before shaking for 1 min and transfer of 10 µl of lysate to a 96-well plate and performance of a BCA assay according to the manufacturer’s instructions. Protein content per well was used to normalize OCR.

SMILES: Nc1ccc([N+](=O)[O-])c(C(F)(F)F)c1 [3-trifluoromethyl-4-nitroaniline]
Cmax ([1]; plasma, metabolite after single 250 mg dose of flutamide, ref Schulz et al., 1988, read-out: maximum plasma concentration (Cmax)): 1310 nM

SMILES: C[C@](O)(CS(=O)(=O)c1ccc(F)cc1)C(=O)Nc1ccc(C#N)c(C(F)(F)F)c1 [(R)-bicalutamide]
half-life ([1]; single 50 mg dose, ref Cockshott, 2004): 140 h
Cmax ([1]; single 50 mg dose, ref Cockshott, 2004, read-out: Cmax): 1700 nM

EC50ATPglu/EC50ATPgal [2]: 1.44 (0.22)
EC50ATPglu/EC50ATPgal ([2]; listed as bicalutamide): ≤ 2
EC50 ([2]; galactose medium, read-out: EC50ATP (μM) Galactose): 103 µM
EC50 ([2]; glucose medium, read-out: EC50ATP (μM) Glucose): 148 µM
SMILES: CC(O)(CS(=O)(=O)c1ccc(F)cc1)C(=O)Nc1ccc(C#N)c(C(F)(F)F)c1 (stereo not shown) [Bicalutamide]
decrease in ATP content in galactose medium compared with glucose medium ([2]; up to 300 µM): this was not the case for bicalutamide
basal respiration ([3]; glucose medium, 7.8–500 µM): only caused a significant decrease in maximal respiration
maximal respiration ([3]; glucose medium, 7.8–500 µM): significant decrease
ATP-linked OCR as a percentage of maximal respiration ([3]; up to 500 µM): not observed
proton leak as a percentage of maximal respiration ([3]; up to 500 µM): not observed
spare respiratory capacity as a percentage of maximal respiration ([3]; up to 500 µM): not observed
